Activity calls are given as the source filed them.
Columns and labels:
[1] = cytotoxicity in HEK-293T cells, dose response, cytotoxicity control for TCR NF-kB inhibitor project, luminescence, T-cell screen hits (AID 489026); type: functional, cell-based;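 also: cells exposed to compound about 14 hours before the viability readout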
[2] = cytotoxicity toward NIH3T3 fibroblasts, dose response, counter-screen, cell-based, ATP luminescence, mouse fibroblasts (AID 2010); type: functional;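 also: cells exposed to compound for about 90 hours before reading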
[3] = inhibitors of intracellular T. cruzi replication, confirmation, NIH3T3 host cells, beta-gal luminescence (AID 2044); type: functional, cell-based;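 also: intracellular parasites grown in NIH/3T3 mouse fibroblasts as host cells; luminescent beta-galactosidase reporter signal from transgenic T. cruzi replicating inside host cells; inhibitors lower the luminescence signal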
Protein Wnt-3a = Protein Wnt-3a (Mus musculus, UniProt P27467); assay: Wnt3a-driven reporter signaling inhibition, dose response, selectivity assay for Gli-SUFU antagonist project, Wnt-LIGHT cells, luminescence (AID 651570); type: functional; details: read-out: IC50_Mean;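 also: Wnt-LIGHT reporter cells stimulated with conditioned medium from Wnt3a-producing cells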
Vero = assay: cells; type: functional; details: Chlorocebus sabaeus
[4] = biological target: T1, E3 ubiquitin-protein ligase XIAP (Homo sapiens, UniProt P98170); assay: Counter Screen using XIAP-Bir3 for Chemical Antagonists of Bir1/2 domains of IAP-family anti-apoptotic proteins. [Related pubchem assays (depositor defined):AID1018, AID1449, AID1514, AID1638, AID1749, AID1750, AID488957, AID488963]
[5] = biological target: T1, E3 ubiquitin-protein ligase XIAP; assay: XIAP antagonists, biochemical, IAP family, fluorescence polarization (AID 1018); type: functional
[6] = biological target: Dual specificity tyrosine-phosphorylation-regulated kinase 1A (Rattus norvegicus, UniProt Q63470); type: biochemical, Homo sapiens
[7] = nonselective inhibitors of cellular cAMP signaling, dose response, counter-screen for MC4R biased antagonist project, cell-based, TR-FRET cAMP detection (AID 602305); type: functional;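 also: U2OS cells stimulated with forskolin near its EC80 as the cAMP inducer; potency is for inhibition of forskolin-stimulated cAMP signaling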
Melanocortin receptor 4 = Melanocortin receptor 4 (Homo sapiens, UniProt P32245); assay: MC4R antagonist potency on cAMP, dose response, cell-based, TR-FRET, biased antagonists (AID 602298); type: functional;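 also: antagonist potency against agonist-stimulated cAMP production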
[8] = biological target: Glucose-6-phosphate 1-dehydrogenase (Homo sapiens, UniProt P11413); assay: human G6PD enzyme inhibitors, dose response, selectivity assay for P. falciparum G6PD inhibitor project, biochemical, fluorescence (AID 504792); type: functional
BJ [9] = assay: cytotoxicity toward Ras-transformed BJeLR fibroblasts, dose response, cell-based, alamar blue fluorescence, cherrypicked samples (AID 2631); type: functional; details: Homo sapiens;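 also: confirmatory dose-response assay in RAS-dependent BJ fibroblasts engineered with TERT, LT and ST, with cytotoxicity read by fluorescence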
BJ [10] = assay: cytotoxicity toward BJ-TERT-LT-ST fibroblasts, dose response, cell-based, RAS-independent, luminescence (AID 1935); type: functional; details: Homo sapiens;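 also: BJ fibroblasts immortalized with TERT plus LT and ST oncogenes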
INS1 = assay: beta cell apoptosis inhibitors, cytokine rescue, dose response, luminescence, retest (AID 449756); type: functional, cell-based; details: Rattus norvegicus;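 also: cell death triggered by IL-1 beta plus TNF-alpha plus IFN-gamma mixture; protective hits raise ATP signal compared with cytokine alone wells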
[11] = cytotoxicity toward DRD oncogenic fibroblasts, dose response, cell-based, non-viral oncogenic, luminescence (AID 1934); type: functional; details: Homo sapiens
BJ [12] = assay: cytotoxicity toward BJ-TERT fibroblasts, dose response, cell-based, RAS-independent, luminescence (AID 1933); type: functional; details: Homo sapiens
BJ [13] = assay: cells; type: functional, cell-based; details: Homo sapiens
cells = type: functional
[14] = THP-1 cell cytotoxicity, dose response, cytotoxicity control for non-replicating M. tuberculosis project (AID 489025); type: functional
[15] = biological target: T2, Rac GTPase-activating protein 1 (Homo sapiens, UniProt Q9H0H5); assay: MgcRacGAP GTPase-activating activity inhibitors, confirmation, biochemical, ADP Hunter fluorescence, primary and confirmatory (AID 624330); type: functional
T2 sequence (Q9H0H5 whole entry): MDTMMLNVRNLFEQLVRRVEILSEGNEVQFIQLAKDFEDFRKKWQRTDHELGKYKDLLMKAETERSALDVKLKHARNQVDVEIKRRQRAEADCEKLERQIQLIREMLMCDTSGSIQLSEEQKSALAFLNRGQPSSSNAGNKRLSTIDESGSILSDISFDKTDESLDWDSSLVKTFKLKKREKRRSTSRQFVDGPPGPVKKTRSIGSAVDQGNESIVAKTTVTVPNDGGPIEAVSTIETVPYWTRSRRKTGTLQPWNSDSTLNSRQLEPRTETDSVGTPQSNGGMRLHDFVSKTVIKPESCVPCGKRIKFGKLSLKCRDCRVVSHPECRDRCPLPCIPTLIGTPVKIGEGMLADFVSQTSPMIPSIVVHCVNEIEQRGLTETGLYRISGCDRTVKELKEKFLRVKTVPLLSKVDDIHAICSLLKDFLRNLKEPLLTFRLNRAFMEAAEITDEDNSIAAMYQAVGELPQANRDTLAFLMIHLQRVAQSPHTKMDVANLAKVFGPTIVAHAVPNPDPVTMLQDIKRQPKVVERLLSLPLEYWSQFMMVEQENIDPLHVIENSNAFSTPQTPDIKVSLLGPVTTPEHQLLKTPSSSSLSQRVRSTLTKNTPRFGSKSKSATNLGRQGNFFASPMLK

[16] = biological target: FAD-linked sulfhydryl oxidase ALR (Homo sapiens, UniProt P55789); assay: inhibitors of human ALR sulfhydryl oxidase, dose response, biochemical, H2O2 detection, luminescence, cherry-pick (AID 493248)
[17] = biological target: T3, Short transient receptor potential channel 4 (Mus musculus, UniProt Q9QUQ5); assay: mouse TRPC4 channel inhibitors, dose response, cell-based, HEK293 TRPC4/mu-opioid, Fluo-4 calcium (AID 434942); type: functional;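 also: potency of inhibitors blocking the TRPC4 calcium response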
T3 sequence (Q9QUQ5 whole entry): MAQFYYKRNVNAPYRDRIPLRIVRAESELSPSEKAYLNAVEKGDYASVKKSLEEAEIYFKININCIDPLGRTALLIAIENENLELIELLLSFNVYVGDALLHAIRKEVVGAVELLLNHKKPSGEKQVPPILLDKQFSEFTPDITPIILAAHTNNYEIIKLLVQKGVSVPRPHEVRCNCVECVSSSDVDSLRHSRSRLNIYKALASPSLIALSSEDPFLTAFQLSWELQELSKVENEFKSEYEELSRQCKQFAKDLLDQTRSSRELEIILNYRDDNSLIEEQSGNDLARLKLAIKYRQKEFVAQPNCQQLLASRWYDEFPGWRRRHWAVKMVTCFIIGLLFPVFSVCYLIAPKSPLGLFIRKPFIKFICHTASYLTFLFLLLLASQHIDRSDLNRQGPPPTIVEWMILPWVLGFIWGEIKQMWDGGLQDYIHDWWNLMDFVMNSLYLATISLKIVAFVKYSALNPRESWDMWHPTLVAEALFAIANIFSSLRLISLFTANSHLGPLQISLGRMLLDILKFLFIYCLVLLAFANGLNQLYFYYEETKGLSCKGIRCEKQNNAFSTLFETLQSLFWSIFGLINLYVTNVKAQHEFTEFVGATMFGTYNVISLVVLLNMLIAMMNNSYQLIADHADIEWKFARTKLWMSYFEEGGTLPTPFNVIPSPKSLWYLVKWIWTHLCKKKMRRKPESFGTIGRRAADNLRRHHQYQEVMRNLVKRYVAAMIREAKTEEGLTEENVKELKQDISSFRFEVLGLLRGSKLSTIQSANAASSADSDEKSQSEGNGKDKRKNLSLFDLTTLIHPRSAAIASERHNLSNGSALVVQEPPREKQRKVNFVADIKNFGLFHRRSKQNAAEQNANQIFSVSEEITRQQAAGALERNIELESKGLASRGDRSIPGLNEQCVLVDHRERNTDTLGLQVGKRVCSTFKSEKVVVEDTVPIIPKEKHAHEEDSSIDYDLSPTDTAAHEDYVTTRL

HEK293 = assay: inhibitors of LMP1-driven NF-kB reporter, dose response, cell-based, HEK293, luciferase, cherry-pick (AID 588343); type: functional; details: Homo sapiens
[18] = inhibitors of SNCA 5'UTR-driven reporter translation, confirmation, H4 neuroglioma cells, luminescence (AID 1988); type: functional, cell-based
[19] = Luminescence Cell-Based Dose Confirmation HTS to Identify Inhibitors of Platelet Dense Granule Release. [Related pubchem assays: 1663 (Primary HTS), 1678 (Summary of Project)]; type: functional
[20] = biological target: Luciferin 4-monooxygenase (Photinus pyralis, UniProt P08659); assay: firefly luciferase enzyme inhibitors, dose response, biochemical, luminescence (AID 1891)
[21] = Luminescence Cell-Based Dose Response HTS to Identify Inhibitors of 5'UTR Stem-Loop Driven Prion Protein mRNA Translation in H4 Neuroglioblastoma Cells. [Related pubchem assays: 1827 (Project Summary), 1813 (Primary HTS)]; type: functional
[22] = biological target: T4, RNA-binding protein pos-1 (Caenorhabditis elegans, UniProt G5EF15); assay: inhibitors of POS-1/mex-3 RNA binding, dose response, biochemical, fluorescence polarization (AID 1964);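 also: purified POS-1 fused to maltose binding protein made in E. coli; potency of compounds blocking POS-1 binding to fluorescent RNA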
T4 sequence (G5EF15 whole entry): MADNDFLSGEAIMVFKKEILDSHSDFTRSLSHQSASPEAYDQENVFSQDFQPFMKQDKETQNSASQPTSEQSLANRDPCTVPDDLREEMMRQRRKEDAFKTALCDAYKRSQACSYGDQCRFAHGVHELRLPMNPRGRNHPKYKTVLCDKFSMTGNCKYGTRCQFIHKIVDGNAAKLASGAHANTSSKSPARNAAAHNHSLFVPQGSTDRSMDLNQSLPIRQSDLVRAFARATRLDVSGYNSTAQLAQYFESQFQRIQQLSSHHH

[23] = biological target: T5, Zinc finger protein mex-5 (Caenorhabditis elegans, UniProt Q9XUB2); assay: MEX-5/TCR-2 RNA interaction inhibitors, dose response, biochemical, C. elegans, fluorescence polarization (AID 1960)
T5 sequence (Q9XUB2 whole entry): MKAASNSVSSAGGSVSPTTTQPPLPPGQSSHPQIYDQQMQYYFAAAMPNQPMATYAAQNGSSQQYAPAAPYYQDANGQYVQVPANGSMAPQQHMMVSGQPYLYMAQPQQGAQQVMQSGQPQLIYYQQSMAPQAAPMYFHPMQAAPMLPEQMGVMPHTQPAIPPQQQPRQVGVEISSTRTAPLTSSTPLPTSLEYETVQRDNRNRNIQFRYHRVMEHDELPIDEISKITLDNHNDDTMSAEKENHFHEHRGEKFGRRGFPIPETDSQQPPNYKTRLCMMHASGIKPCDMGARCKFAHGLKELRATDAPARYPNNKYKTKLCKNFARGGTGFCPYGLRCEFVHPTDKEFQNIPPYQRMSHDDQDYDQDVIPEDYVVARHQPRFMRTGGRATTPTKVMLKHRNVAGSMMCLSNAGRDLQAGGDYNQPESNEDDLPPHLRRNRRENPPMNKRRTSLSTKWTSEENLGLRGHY

T1 sequence (P98170 whole entry): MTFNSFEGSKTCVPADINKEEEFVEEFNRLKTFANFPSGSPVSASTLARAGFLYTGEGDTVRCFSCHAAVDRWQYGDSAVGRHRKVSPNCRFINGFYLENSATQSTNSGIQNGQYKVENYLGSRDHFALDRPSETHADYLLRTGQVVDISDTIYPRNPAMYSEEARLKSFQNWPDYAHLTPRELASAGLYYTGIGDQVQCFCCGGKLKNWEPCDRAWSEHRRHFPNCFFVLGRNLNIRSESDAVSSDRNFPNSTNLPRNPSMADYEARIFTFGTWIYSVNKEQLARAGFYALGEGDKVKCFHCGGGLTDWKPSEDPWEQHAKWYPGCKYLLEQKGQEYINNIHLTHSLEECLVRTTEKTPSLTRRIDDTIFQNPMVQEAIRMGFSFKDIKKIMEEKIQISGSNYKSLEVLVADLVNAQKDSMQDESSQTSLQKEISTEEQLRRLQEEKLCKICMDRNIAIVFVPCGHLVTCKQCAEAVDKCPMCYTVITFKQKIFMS
Chain of Glucose-6-phosphate 1-dehydrogenase (P11413 whole entry): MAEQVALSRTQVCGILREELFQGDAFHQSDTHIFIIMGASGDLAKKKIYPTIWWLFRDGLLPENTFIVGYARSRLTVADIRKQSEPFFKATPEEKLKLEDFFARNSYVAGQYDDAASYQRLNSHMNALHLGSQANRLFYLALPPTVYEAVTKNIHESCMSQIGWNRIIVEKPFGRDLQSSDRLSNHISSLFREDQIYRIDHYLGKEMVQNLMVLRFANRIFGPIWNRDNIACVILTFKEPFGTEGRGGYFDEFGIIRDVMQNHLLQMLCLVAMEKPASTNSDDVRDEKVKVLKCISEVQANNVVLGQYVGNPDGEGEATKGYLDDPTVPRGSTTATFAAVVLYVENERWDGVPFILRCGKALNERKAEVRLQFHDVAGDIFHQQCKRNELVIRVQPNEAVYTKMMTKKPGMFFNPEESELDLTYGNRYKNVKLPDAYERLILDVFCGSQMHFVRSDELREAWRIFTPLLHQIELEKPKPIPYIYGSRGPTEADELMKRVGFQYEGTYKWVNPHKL
Chain of Melanocortin receptor 4 (P32245 whole entry): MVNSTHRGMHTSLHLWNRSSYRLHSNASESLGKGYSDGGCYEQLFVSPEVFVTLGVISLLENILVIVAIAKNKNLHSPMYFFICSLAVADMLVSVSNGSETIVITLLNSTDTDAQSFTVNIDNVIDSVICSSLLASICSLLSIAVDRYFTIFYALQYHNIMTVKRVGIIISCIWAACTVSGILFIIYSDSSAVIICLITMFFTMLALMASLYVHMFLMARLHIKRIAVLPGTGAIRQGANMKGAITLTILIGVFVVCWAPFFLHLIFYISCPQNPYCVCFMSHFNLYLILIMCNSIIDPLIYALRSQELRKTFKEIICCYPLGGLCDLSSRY
Chain of Protein Wnt-3a (P27467 whole entry): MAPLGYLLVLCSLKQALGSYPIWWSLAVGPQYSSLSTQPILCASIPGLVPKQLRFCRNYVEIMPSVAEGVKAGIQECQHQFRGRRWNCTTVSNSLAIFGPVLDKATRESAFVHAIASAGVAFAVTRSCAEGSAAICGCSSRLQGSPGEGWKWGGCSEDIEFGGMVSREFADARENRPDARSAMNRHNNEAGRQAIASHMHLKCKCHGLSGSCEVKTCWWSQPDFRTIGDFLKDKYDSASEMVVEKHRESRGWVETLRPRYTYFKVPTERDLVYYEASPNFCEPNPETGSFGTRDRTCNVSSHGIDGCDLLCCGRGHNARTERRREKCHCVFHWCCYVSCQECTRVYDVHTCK
Chain of FAD-linked sulfhydryl oxidase ALR (P55789 whole entry): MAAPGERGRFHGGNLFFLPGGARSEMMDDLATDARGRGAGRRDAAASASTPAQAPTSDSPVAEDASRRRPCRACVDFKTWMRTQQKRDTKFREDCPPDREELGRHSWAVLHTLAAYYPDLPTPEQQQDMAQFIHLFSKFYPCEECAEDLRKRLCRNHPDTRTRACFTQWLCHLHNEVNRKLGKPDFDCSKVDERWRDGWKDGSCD
Chain of Luciferin 4-monooxygenase (P08659 whole entry): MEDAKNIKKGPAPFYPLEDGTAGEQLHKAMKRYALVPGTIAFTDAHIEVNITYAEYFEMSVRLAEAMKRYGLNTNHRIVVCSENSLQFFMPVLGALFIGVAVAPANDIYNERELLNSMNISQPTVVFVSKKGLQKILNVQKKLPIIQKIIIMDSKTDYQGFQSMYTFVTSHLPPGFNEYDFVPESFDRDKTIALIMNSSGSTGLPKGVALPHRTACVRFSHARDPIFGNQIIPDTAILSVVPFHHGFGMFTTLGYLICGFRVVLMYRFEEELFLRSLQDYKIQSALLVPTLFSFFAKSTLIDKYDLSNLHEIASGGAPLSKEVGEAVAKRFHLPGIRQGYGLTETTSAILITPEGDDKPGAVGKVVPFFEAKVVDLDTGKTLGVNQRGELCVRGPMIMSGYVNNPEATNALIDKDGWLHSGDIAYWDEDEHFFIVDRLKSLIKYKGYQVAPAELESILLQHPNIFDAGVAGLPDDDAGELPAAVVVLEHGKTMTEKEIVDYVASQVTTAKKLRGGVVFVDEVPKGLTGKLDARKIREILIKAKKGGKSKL

CCCCCCCOc1ccc(OC(=O)c2cccnc2)cc1
IC50 [1]: > 80 µM (inactive)
EC50 [2]: 4.45 µM (active)
EC50 [3]: 1.89 µM (active)

COC(=O)c1cc(S(=O)(=O)N2CCC(c3cc(OC)ccc3OC)C2)c[nH]1 (configuration not stated)
IC50 (Protein Wnt-3a): 7.87 µM (active)

CN1C(=O)/C(=C\c2ccc(N3CCCCCC3)cc2)C(=O)NC1=S
CC50 (Vero): 17.9 µM (active)

CCOC(=O)c1[nH]c2c(c1C)C(=O)CC(c1ccc(F)cc1)C2 (configuration not stated)
IC50 [1]: > 80 µM (inactive)

CCOC(=O)CCc1c(C)c2ccc(O)cc2oc1=O
IC50 [4]: > 100 µM (inactive)
IC50 [5]: > 100 µM (not active)

CSc1cccc(NC(=O)c2c(Cl)cnn2C)c1
AC50 [6]: 7.08 µM (active)

COC(=O)c1c(NC(=O)CC2SCC(C(=O)OC)NC2=O)sc2c1CCCC2 (configuration not stated)
IC50 [7]: > 64.6 µM (inactive)
IC50 (Melanocortin receptor 4): > 64.6 µM (inactive)

CCN(CC)C(=O)c1c(C)[nH]c(=S)c(C#N)c1-c1ccco1
IC50 [8]: > 80 µM (inactive)

O=C(NCc1cccnc1)c1ccc(-c2cc3ccccc3oc2=O)cc1
EC50 (BJ [9]): 6.49 µM (active)
EC50 (BJ [10]): 3.16 µM (active)
AC50 (INS1): 3.61 µM (active)
EC50 [11]: > 150 µM (not active)
EC50 (BJ [12]): 22.6 µM (active)
EC50 (BJ [13]): 11.8 µM (inconclusive)

O=S1(=O)CC2N=C(N(Cc3c(F)cccc3Cl)c3ccccc3F)SC2C1 (configuration not stated)
IC50 [4]: > 100 µM (inactive)
IC50 [5]: > 100 µM (not active)

COc1ccc(C(=O)Nc2nc(-c3cccs3)c(NC(C)=O)s2)cc1
IC50 [4]: > 100 µM (inactive)
IC50 [5]: > 100 µM (not active)

COc1cccc2[nH]c3c(Cl)ncnc3c12
IC50 [7]: > 64.6 µM (inactive)
IC50 (cells): > 50 µM (active)
IC50 (Melanocortin receptor 4): > 64.6 µM (inactive)
CC50 [14]: 33.9 µM (active)

COc1cc(/C=C2\SC(N3CCC(C)CC3)=NC2=O)ccc1O
IC50 [15]: 16.3 µM (active)
AC50 [16]: 0.929 µM (active)
AC50 [6]: 2.68 µM (active)
EC50 [17]: 3.35 µM (active)

O=C(CCl)N(CCCNC(=O)C(F)(F)F)c1ccc([N+](=O)[O-])cc1
EC50 (BJ [9]): 0.995 µM (active)
EC50 (BJ [10]): 11.6 µM (inconclusive)
EC50 [11]: 4.66 µM (active)
EC50 (BJ [12]): 2.53 µM (inconclusive)
EC50 (BJ [13]): 4.39 µM (active)

COc1ccc(-n2c(SC3CCOC3=O)nc3ccccc32)cc1 (configuration not stated)
IC50 [7]: > 64.6 µM (inactive)
IC50 (Melanocortin receptor 4): > 64.6 µM (inactive)

Cc1nn(-c2ccc(NC(=O)c3ccncc3)cc2)c(C)c1Cl
IC50 (Protein Wnt-3a): 3 µM (active)

C/C(=C\[C@@H](NP(=O)(c1ccccc1)c1ccccc1)c1ccccc1)CO[Si](c1ccccc1)(c1ccccc1)C(C)(C)C
CC50 (Vero): > 25 µM (active)

COc1cccc(C(=O)N2CCN(c3nc4cc(C)cc(C)c4cc3C#N)CC2)c1
AC50 (HEK293): 194 µM (active)

C(=N\Nc1nc2ccccc2[nH]1)/c1ccccn1
EC50 (BJ [9]): 1.99 µM (active)
EC50 [18]: 5.82 µM (active)
IC50 [8]: > 80 µM (inactive)
EC50 [19]: 4.15 µM (active)
EC50 [20]: 1.16 µM (active)
EC50 [21]: 1.29 µM (active)
EC50 [22]: 72.9 µM (active)
EC50 [23]: 41.7 µM (active)

O=[N+]([O-])c1ccc(O)c(/C=N/n2c(S)nnc2-c2ccccc2)c1
AC50 [6]: 7.9 µM (active)

CCn1/c(=N/c2ccc(N3CCOCC3)cc2)ccc2ccccc21
IC50 [4]: > 100 µM (inactive)
IC50 [5]: > 100 µM (not active)

Cc1cc(C)nc(/N=C(\N)NCCc2ccccc2)n1
IC50 [8]: > 80 µM (inactive)

From ChEMBL document CHEMBL1201862, “PubChem BioAssay data set” (2004)
